This is an account of results in publication PMC5995653 (Journal of pharmacological and toxicological methods, 2018).

SMILES strings stand for the structures. Read-outs that look alike come from different tables or passages of the source.

One assay has as its target rSERT (Rattus norvegicus, UniProt P31652). The following applies: read-out: Ki, rSERT, synaptosomes; cited from earlier work.
Assay [1] deals with T1, hSERT (Homo sapiens, UniProt P31645). The following applies: read-out: Reuptake inhibition activity IC50, hSERT-HEK293 cells; cited from earlier work.
T1 sequence (P31645 whole entry): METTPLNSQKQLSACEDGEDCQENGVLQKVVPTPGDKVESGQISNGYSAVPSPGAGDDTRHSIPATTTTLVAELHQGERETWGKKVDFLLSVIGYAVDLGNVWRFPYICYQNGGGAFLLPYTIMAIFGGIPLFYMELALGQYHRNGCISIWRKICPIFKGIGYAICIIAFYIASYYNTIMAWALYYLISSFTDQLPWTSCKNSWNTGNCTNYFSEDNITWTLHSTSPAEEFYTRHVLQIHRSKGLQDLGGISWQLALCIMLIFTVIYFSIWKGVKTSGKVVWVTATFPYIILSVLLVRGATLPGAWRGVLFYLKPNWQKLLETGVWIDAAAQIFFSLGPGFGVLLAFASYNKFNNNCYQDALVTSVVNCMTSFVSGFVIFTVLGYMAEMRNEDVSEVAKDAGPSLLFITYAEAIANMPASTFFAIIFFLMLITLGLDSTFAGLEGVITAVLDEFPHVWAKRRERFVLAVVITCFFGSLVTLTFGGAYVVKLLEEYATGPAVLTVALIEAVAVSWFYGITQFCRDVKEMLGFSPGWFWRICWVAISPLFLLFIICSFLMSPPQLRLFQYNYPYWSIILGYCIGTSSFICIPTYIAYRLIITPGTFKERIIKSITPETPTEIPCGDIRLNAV
Assay [2] addresses T1, hSERT. The following applies: read-out: Reuptake inhibition activity IC50, hSERT, JAR cells.
The target of assay [3] is T1, hSERT. As to the kind of experiment: SERT reuptake inhibition in transfected hSERT-HEK293 cells. It counts as cell-based. The following applies: unpublished results of the authors' group.

As a reminder, the Ki is a dissociation constant, usually derived from enzyme kinetics or from competition with a known ligand. What is called IC50 is the concentration at which inhibition is half-maximal.

rSERT, sequence (P31652 whole entry): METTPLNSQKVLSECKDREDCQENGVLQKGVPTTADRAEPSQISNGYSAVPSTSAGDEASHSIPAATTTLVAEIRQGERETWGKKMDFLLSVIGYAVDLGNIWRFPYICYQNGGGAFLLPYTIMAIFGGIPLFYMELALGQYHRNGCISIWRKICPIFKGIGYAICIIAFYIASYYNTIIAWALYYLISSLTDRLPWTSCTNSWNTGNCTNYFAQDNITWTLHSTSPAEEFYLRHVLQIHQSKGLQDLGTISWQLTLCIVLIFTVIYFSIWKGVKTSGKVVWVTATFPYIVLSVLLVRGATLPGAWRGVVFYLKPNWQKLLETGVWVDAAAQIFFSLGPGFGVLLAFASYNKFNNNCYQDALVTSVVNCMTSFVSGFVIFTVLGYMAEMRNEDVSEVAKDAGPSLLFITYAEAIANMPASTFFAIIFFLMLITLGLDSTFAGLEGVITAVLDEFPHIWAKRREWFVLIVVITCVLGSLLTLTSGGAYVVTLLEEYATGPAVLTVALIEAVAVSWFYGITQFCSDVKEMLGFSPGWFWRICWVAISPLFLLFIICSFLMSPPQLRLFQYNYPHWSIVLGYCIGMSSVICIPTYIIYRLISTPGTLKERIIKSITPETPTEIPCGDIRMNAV

Consider `COC(=O)[C@H]1C(c2ccc(I)cc2)C[C@@H]2CC[C@H]1N2C` (stereo partly drawn) [RTI-55], for which, at rSERT, the inhibitory constant (Ki) was 1 nM. Besides, the values for the concentration for half-maximal inhibition (IC50) on hSERT [1] and at hSERT [2] were 0.51 ± 0.14 nM and 1.31 ± 0.1 nM, respectively.
For the compound `CN1[C@H]2CC[C@@H]1[C@@H](C(=O)N1CCCC1)[C@@H](c1ccc(I)cc1)C2` [RTI-229], the inhibition constant (Ki) at rSERT was 362 nM. The half-inhibitory concentration (IC50) on hSERT [2] was determined as 589 ± 42 nM.
`Fc1ccc(C(OCCN2CCN(CCCc3ccccc3)CC2)c2ccc(F)cc2)cc1` [GBR12909]: the “Activity in hSERT-HEK293 cells (in words)” value on hSERT [3] is “inactive”.
